From patent publication US20240252488A1 (KOREA RESEARCH INSTITUTE OF CHEMICAL TECHNOLOGY, priority 2020, published 2024)
pKd: −log10 of the molar value.

Key:
FADD−/− Jurkat cells = test: Necroptosis inhibition assay, TNF-α-induced necroptosis (CellTiter-Glo 2.0); format: cell-based, human; details: TNF-α 15 ng/mL; for Necroptosis inhibition assay (Rescue %) 1 μM: compound 1 μM; for Necroptosis inhibition assay (Rescue %) 10 μM: compound 10 μM
In short: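 Luminescent ATP measurement gave viability, from which cytotoxicity and necroptosis inhibition rate were derived. Before that, cells (5.0×10^5 cells/mL) saw compound at 0.1, 1 or 10 μM final for 30 minutes at room temperature, then TNF-α (15 ng/mL final) for 20 to 24 hours at 37° C.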

MLKL [1] = target: T1, MLKL (Homo sapiens, UniProt Q8NB16); test: MLKL degradation assay in HepG2 cell line (western blot); format: cell-based; parameters: endogenous in cells; host or cells: HepG2 or HaCaT; details: cell line not given; for Degradation assay (Degradation %) 1 μM: compound 1 μM; for Degradation assay (Degradation %) 10 μM: compound 10 μM
T1 sequence (Q8NB16 1-471): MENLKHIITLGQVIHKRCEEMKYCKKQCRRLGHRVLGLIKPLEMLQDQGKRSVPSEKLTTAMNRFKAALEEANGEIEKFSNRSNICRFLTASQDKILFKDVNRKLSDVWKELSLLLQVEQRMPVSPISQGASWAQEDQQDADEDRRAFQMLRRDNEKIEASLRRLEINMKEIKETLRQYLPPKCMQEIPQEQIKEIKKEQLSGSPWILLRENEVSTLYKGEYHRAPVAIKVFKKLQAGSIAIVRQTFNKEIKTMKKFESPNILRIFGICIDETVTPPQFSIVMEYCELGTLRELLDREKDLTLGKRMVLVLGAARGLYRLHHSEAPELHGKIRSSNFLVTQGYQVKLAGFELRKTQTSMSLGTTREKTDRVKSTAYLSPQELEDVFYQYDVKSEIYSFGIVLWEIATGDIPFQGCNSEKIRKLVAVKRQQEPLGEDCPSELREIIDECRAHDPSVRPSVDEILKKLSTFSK
In short: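 Cells seeded, next day medium swapped for compound-containing medium (final 1 or 10 μM) and incubated 20-24 h at 37 °C. Lysates in RIPA with protease/phosphatase inhibitors were protein-matched by BCA, run on SDS-PAGE and immunoblotted for MLKL.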

MLKL [2] = target: T1, MLKL; test: Measurement of binding affinity with MLKL receptor (competitive binding assay, Kd); parameters: made in house; host or cells: HEK 293 cell line (T7 phage in E. coli BL21-derived host is also described)
In short: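 Kd comes from a bead-based competition format: compound-dependent loss of DNA-tagged, HEK 293-expressed MLKL capture, measured as eluate kinase by qPCR. Final DMSO is 0.9%.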

Compound: Nc1ncc(-c2cnn(C3CCN(C(=O)CCC4CCN(C(=O)CC5CCN(c6cccc7c6C(=O)N(C6CCC(=O)NC6=O)C7=O)CC5)CC4)CC3)c2)nc1C(=O)O[C@@H](C(=O)Nc1ccc(F)cc1)c1ccccc1 (stereo partly drawn) [TDH-429, (R)-2-((4-fluorophenyl)amino)-2-oxo-1-phenylethyl 3-amino-6-(1-(1-(3-(1-(2-(1-(2-(2,6-dioxopiperidin-3-yl)-1,3-dioxoisoindolin-4-yl)piperidin-4-yl)acetyl)piperidin-4-yl)propanoyl)piperidin-4-yl)-1H-pyrazol-4-yl)pyrazine-2-carboxylate]
- Necroptosis inhibition assay (Rescue %) 1 μM (FADD−/− Jurkat cells; FADD−/− Jurkat cells): 18.34%
- Necroptosis inhibition assay (Rescue %) 10 μM (FADD−/− Jurkat cells; FADD−/− Jurkat cells): 11.03%
- Degradation assay (Degradation %) 1 μM (MLKL [1]): 77.13%
- Degradation assay (Degradation %) 10 μM (MLKL [1]): 63.72%
- pKd (MLKL [2]): 8.64

Compound: Nc1ncc(-c2cnn(C3CCN(CC4CCN(CC5CCN(C(=O)c6ccc7c(N8CCC(=O)NC8=O)coc7c6)CC5)CC4)CC3)c2)nc1C(=O)O[C@@H](C(=O)Nc1ccc(F)cc1)c1ccccc1 [TDH-555, (R)-2-((4-fluorophenyl)amino)-2-oxo-1-phenylethyl 3-amino-6-(1-(1-((1-((1-(3-(2,4-dioxotetrahydropyrimidin-1(2H)-yl)benzofuran-6-carbonyl)piperidin-4-yl)methyl)piperidin-4-yl)methyl)piperidin-4-yl)-1H-pyrazol-4-yl)pyrazine-2-carboxylate]
- Necroptosis inhibition assay (Rescue %) 1 μM (FADD−/− Jurkat cells; FADD−/− Jurkat cells): 47.10%
- Necroptosis inhibition assay (Rescue %) 10 μM (FADD−/− Jurkat cells; FADD−/− Jurkat cells): −51.39%
- Degradation assay (Degradation %) 1 μM (MLKL [1]): 78.56%
- pKd (MLKL [2]): 9.66

Compound: Nc1ncc(-c2cnn(C3CCN(C(=O)COC4CCN(C(=O)CNc5cccc6c5C(=O)N(C5CCC(=O)NC5=O)C6=O)CC4)CC3)c2)nc1C(=O)O[C@@H](C(=O)Nc1ccc(F)cc1)c1ccccc1 (stereo partly drawn) [TDH-395, (R)-2-((4-fluorophenyl)amino)-2-oxo-1-phenylethyl 3-amino-6-(1-(1-(2-((1-((2-(2,6-dioxopiperidin-3-yl)-1,3-dioxoisoindolin-4-yl)glycyl)piperidin-4-yl)oxy)acetyl)piperidin-4-yl)-1H-pyrazol-4-yl)pyrazine-2-carboxylate]
- Necroptosis inhibition assay (Rescue %) 1 μM (FADD−/− Jurkat cells): 34.73%
- Necroptosis inhibition assay (Rescue %) 10 μM (FADD−/− Jurkat cells): 37.15%
- Degradation assay (Degradation %) 1 μM (MLKL [1]): 88.76%
- Degradation assay (Degradation %) 10 μM (MLKL [1]): 89.67%
- pKd (MLKL [2]): 8.21

Compound: Nc1ncc(-c2cnn(C3CCN(CCCN4CCN(c5ccc6c(c5)C(=O)N(C5CCC(=O)NC5=O)C6=O)CC4)CC3)c2)nc1C(=O)N[C@@H](C(=O)Nc1ccc(F)cc1)c1ccccc1 (stereo partly drawn) [TDH-491, 3-amino-6-(1-(1-(3-(4-(2-(2,6-dioxopiperidin-3-yl)-1,3-dioxoisoindolin-5-yl)piperazin-1-yl)propyl)piperidin-4-yl)-1H-pyrazol-4-yl)-N-((R)-2-((4-fluorophenyl)amino)-2-oxo-1-phenylethyl)pyrazine-2-carboxamide]
- Necroptosis inhibition assay (Rescue %) 1 μM (FADD−/− Jurkat cells; FADD−/− Jurkat cells): 0.07%
- Necroptosis inhibition assay (Rescue %) 10 μM (FADD−/− Jurkat cells; FADD−/− Jurkat cells): −24.78%
- Degradation assay (Degradation %) 1 μM (MLKL [1]): 19.04%
- Degradation assay (Degradation %) 10 μM (MLKL [1]): 14.39%
- pKd (MLKL [2]): 7.11

Compound: Nc1ncc(-c2cnn(C3CCN(CCOCCOCCNC(=O)C4CCN(c5ccc6c(c5)C(=O)N(C5CCC(=O)NC5=O)C6=O)CC4)CC3)c2)nc1C(=O)O[C@@H](C(=O)Nc1ccc(F)cc1)c1ccccc1 (stereo partly drawn) [TDH-111, (R)-2-((4-fluorophenyl)amino)-2-oxo-1-phenylethyl 3-amino-6-(1-(1-(2-(2-(2-(1-(2-(2,6-dioxopiperidin-3-yl)-1,3-dioxoisoindolin-5-yl)piperidine-4-carboxamido)ethoxy)ethoxy)ethyl)piperidin-4-yl)-1H-pyrazol-4-yl)pyrazine-2-carboxylate]
- Necroptosis inhibition assay (Rescue %) 1 μM (FADD−/− Jurkat cells): 45.17%
- Necroptosis inhibition assay (Rescue %) 10 μM (FADD−/− Jurkat cells): 78.08%
- Degradation assay (Degradation %) 1 μM (MLKL [1]): 4.54%
- Degradation assay (Degradation %) 10 μM (MLKL [1]): 28.85%
- pKd (MLKL [2]): 8.28

Compound: Nc1ncc(-c2cnn(C3CCN(C(=O)COC4CCN(C(=O)COc5ccc6c(c5)C(=O)N(C5CCC(=O)NC5=O)C6=O)CC4)CC3)c2)nc1C(=O)O[C@@H](C(=O)Nc1ccc(F)cc1)c1ccccc1 (stereo partly drawn) [TDH-394, (R)-2-((4-fluorophenyl)amino)-2-oxo-1-phenylethyl 3-amino-6-(1-(1-(2-((1-(2-((2-(2,6-dioxopiperidin-3-yl)-1,3-dioxoisoindolin-5-yl)oxy)acetyl)piperidin-4-yl)oxy)acetyl)piperidin-4-yl)-1H-pyrazol-4-yl)pyrazine-2-carboxylate]
- Necroptosis inhibition assay (Rescue %) 1 μM (FADD−/− Jurkat cells): 47.22%
- Necroptosis inhibition assay (Rescue %) 10 μM (FADD−/− Jurkat cells): 53.54%
- Degradation assay (Degradation %) 1 μM (MLKL [1]): 60.83%
- Degradation assay (Degradation %) 10 μM (MLKL [1]): 94.76%
- pKd (MLKL [2]): 8.55

Compound: Nc1ncc(-c2cnn(C3CCN(C(=O)c4cn(C5CCN(C(=O)CNc6cccc7c6C(=O)N(C6CCC(=O)NC6=O)C7=O)CC5)cn4)CC3)c2)nc1C(=O)O[C@@H](C(=O)Nc1ccc(F)cc1)c1ccccc1 (stereo partly drawn) [TDH-356, (R)-2-((4-fluorophenyl)amino)-2-oxo-1-phenylethyl 3-amino-6-(1-(1-(1-(1-((2-(2,6-dioxopiperidin-3-yl)-1,3-dioxoisoindolin-4-yl)glycyl)piperidin-4-yl)-1H-imidazole-4-carbonyl)piperidin-4-yl)-1H-pyrazol-4-yl)pyrazine-2-carboxylate]
- Necroptosis inhibition assay (Rescue %) 1 μM (FADD−/− Jurkat cells): 5.27%
- Necroptosis inhibition assay (Rescue %) 10 μM (FADD−/− Jurkat cells): 0.50%
- Degradation assay (Degradation %) 1 μM (MLKL [1]): 22.83%
- pKd (MLKL [2]): 8.34

Compound: Nc1ncc(-c2cnn(C3CCN(CCOCCOCCNC(=O)CNc4ccc5nnn(C6CCC(=O)NC6=O)c(=O)c5c4)CC3)c2)nc1C(=O)O[C@@H](C(=O)Nc1ccc(F)cc1)c1ccccc1 (stereo partly drawn) [TDH-174, (R)-2-((4-fluorophenyl)amino)-2-oxo-1-phenylethyl 3-amino-6-(1-(1-(2-(2-(2-(2-((3-(2,6-dioxopiperidin-3-yl)-4-oxo-3,4-dihydrobenzo[d][1,2,3]triazin-6-yl)amino)acetamido)ethoxy)ethoxy)ethyl)piperidin-4-yl)-1H-pyrazol-4-yl)pyrazine-2-carboxylate]
- Necroptosis inhibition assay (Rescue %) 1 μM (FADD−/− Jurkat cells): 16.47%
- Necroptosis inhibition assay (Rescue %) 10 μM (FADD−/− Jurkat cells): 42.59%
- Degradation assay (Degradation %) 1 μM (MLKL [1]): 49.38%
- Degradation assay (Degradation %) 10 μM (MLKL [1]): 52.62%
- pKd (MLKL [2]): 8.66

Compound: Nc1ncc(-c2cnn(C3CCN(C(=O)CCC4CCN(C(=O)COc5cccc6c5C(=O)N(C5CCC(=O)NC5=O)C6=O)CC4)CC3)c2)nc1C(=O)O[C@@H](C(=O)Nc1ccc(F)cc1)c1ccccc1 (stereo partly drawn) [TDH-415, (R)-2-((4-fluorophenyl)amino)-2-oxo-1-phenylethyl 3-amino-6-(1-(1-(3-(1-(2-((2-(2,6-dioxopiperidin-3-yl)-1,3-dioxoisoindolin-4-yl)oxy)acetyl)piperidin-4-yl)propanoyl)piperidin-4-yl)-1H-pyrazol-4-yl)pyrazine-2-carboxylate]
- Necroptosis inhibition assay (Rescue %) 1 μM (FADD−/− Jurkat cells; FADD−/− Jurkat cells): 41.74%
- Necroptosis inhibition assay (Rescue %) 10 μM (FADD−/− Jurkat cells; FADD−/− Jurkat cells): 40.81%
- Degradation assay (Degradation %) 1 μM (MLKL [1]): 89.91%
- Degradation assay (Degradation %) 10 μM (MLKL [1]): 90.14%
- pKd (MLKL [2]): 8.77

Compound: Nc1ncc(-c2cnn(C3CCN(C(=O)CCC4CCN(C(=O)C5CN(c6cccc7c6C(=O)N(C6CCC(=O)NC6=O)C7=O)C5)CC4)CC3)c2)nc1C(=O)O[C@@H](C(=O)Nc1ccc(F)cc1)c1ccccc1 (stereo partly drawn) [TDH-427, (R)-2-((4-fluorophenyl)amino)-2-oxo-1-phenylethyl 3-amino-6-(1-(1-(3-(1-(1-(2-(2,6-dioxopiperidin-3-yl)-1,3-dioxoisoindolin-4-yl)azetidine-3-carbonyl)piperidin-4-yl)propanoyl)piperidin-4-yl)-1H-pyrazol-4-yl)pyrazine-2-carboxylate]
- Necroptosis inhibition assay (Rescue %) 1 μM (FADD−/− Jurkat cells; FADD−/− Jurkat cells): 5.57%
- Necroptosis inhibition assay (Rescue %) 10 μM (FADD−/− Jurkat cells; FADD−/− Jurkat cells): 9.73%
- Degradation assay (Degradation %) 1 μM (MLKL [1]): 75.94%
- Degradation assay (Degradation %) 10 μM (MLKL [1]): 59.59%
- pKd (MLKL [2]): 8.62

Compound: Nc1ncc(-c2cnn(C3CCN(C(=O)c4cn(C5CCN(C(=O)C6CCN(c7cccc8c7C(=O)N(C7CCC(=O)NC7=O)C8=O)CC6)CC5)cn4)CC3)c2)nc1C(=O)O[C@@H](C(=O)Nc1ccc(F)cc1)c1ccccc1 (stereo partly drawn) [TDH-362, (R)-2-((4-fluorophenyl)amino)-2-oxo-1-phenylethyl 3-amino-6-(1-(1-(1-(1-(1-(2-(2,6-dioxopiperidin-3-yl)-1,3-dioxoisoindolin-4-yl)piperidine-4-carbonyl)piperidin-4-yl)-1H-imidazole-4-carbonyl)piperidin-4-yl)-1H-pyrazol-4-yl)pyrazine-2-carboxylate]
- Necroptosis inhibition assay (Rescue %) 1 μM (FADD−/− Jurkat cells): 17.89%
- Necroptosis inhibition assay (Rescue %) 10 μM (FADD−/− Jurkat cells): 16.12%
- Degradation assay (Degradation %) 1 μM (MLKL [1]): 69.87%
- Degradation assay (Degradation %) 10 μM (MLKL [1]): 69.78%
- pKd (MLKL [2]): 8.26
